≈ marks a conversion by molar mass, not a printed value. Where two headings read alike, the source gives them in different places. Marks after values point to notes of the source that are not given here.
Assays:
[1] = tested on: macrophages; test: Cytotoxicity on macrophages; type: cell-based, BALB/c mice
Procedure: The macrophages, which will be used as host cells for the leishmania, are obtained after multiplication and differentiation of medullary precursors from BALB/c mice. This culture is prepared in the presence of supernatant from a conditioned line of fibroblasts L-929, and source of “Macrophage Colony Stimulating Factor”. After culturing for 5 days on a hydrophobic support, the adherent macrophages are recovered and then distributed in flat-bottomed 96-well plates for cell culture, in a proportion of 4×10^4 macrophages per well. The macrophages are then infected with purified amastigotes (4 parasites per macrophage) and incubated at 34° C. for 24 hours to allow development of parasitophorous vacuoles and multiplication of parasites. Under these conditions, more than 95% of the macrophages are infected.
The solutions of the substituted quinolines to be tested are prepared in DMSO before being added, at various concentrations, to the infected macrophage cultures.
The results obtained with the substituted quinolines, assigned Nos. 1, 2, 4, 6 to 11, 13 to 20, 23 to 34, 37 and 38 in Table I, are given in Table II below as regards their activity on the amastigotes of Leishmania amazonensis, of Leishmania donovani and of Leishmania infantum, and also their cytotoxicity with respect to the macrophages.

[2] = tested on: amastigotes of Leishmania amazonensis; test: Amastigotes of Leishmania amazonensis in infected macrophages (leishmanicidal activity); type: cell-based; details: for L. amazonensis IC100: 100% inhibitory concentration, intracellular amastigotes in BALB/c macrophages, 30 hours after addition; for activity on Leishmania amazonensis (in words): comment on Table II
Procedure: The strain of Leishmania amazonensis is maintained by successive passages in “nude” mice (nu/nu). The amastigotes are isolated from the lesions developed on the footpads, and purified according to the method described by Antoine et al. (Parasitology, 1989, 99: 1).
The leishmanicidal activity of the quinolines is determined 30 hours after addition of the solutions of substituted quinolines. It is based on a more or less large, or even complete, decrease, firstly, in the size of the parasitophorous vacuoles and, secondly, in the number of live intracellular amastigotes.

[3] = tested on: circulating forms of Trypanosoma brucei (S427 strain); test: microbe, parasite or virus in culture; type: cell-based; details: for IC50: read-out: T. brucei IC50; for activity on Trypanosoma brucei (in words): comment on Table III
Procedure: d) Tests on the Circulating Forms of Trypanosoma brucei
The circulating forms of Trypanosoma brucei are cultured in MEM medium (minimum essential medium; GIBCO-BRL, No. 072-1100) to which Earle's salts have been added and supplemented with 1 mg/ml of glucose, 2.2 mg/ml of NaHCO3, 10 mM of Hepes, 2 mM of sodium pyruvate, 0.2 mM of 2-mercaptoethanol, 0.1 mM of hypoxanthine and 15% of inactivated horse serum.
The cultures are maintained at 37° C. in 24-well plates in a humid atmosphere (5% CO2-95% air) and the passages are carried out every 2 or 3 days at a density of 10^3 to 10^5 trypomastigotes per ml. The activity of the substituted quinolines is tested in triplicate in 96-well plates in which 10^3 parasites originating from an exponential growth phase are distributed per well, in the presence of the various solutions of substituted quinolines in a final volume of 200 μl. After culturing for 48 hours, the trypanocidal activity is assessed by counting, with a Neubauer cell, the number of live parasites per well.

[4] = tested on: amastigotes of Trypanosoma cruzi (Tulahuen strain); test: Amastigotes of Trypanosoma cruzi in peritoneal macrophages; type: cell-based; details: for IC50: read-out: T. cruzi (amastigotes) IC50; for activity on Trypanosoma cruzi (in words): comment on Table III
Procedure: c) Tests on Amastigotes of Trypanosoma cruzi
Peritoneal macrophages from Balb/c mice are collected, washed in Dulbecco PBS and then distributed in 96-well plates in a proportion of 3×10^4 cells per 100 μl and per well, in RPMI-1640 medium supplemented with 10% FCS and antibiotics.
After 24 hours at 37° C., 10^5 trypomastigotes are added with serial 2-fold dilutions of the various substituted quinolines. The cultures are then incubated at 37° C. for 4 days in a humid atmosphere (5% CO2-95% air). After fixing, and then staining with Giemsa, the antiparasitic activity is assessed by counting the extracellular trypomastigotes and the intracellular amastigotes.

[5] = tested on: amastigotes of Leishmania infantum (MHOM/MA(BE)67); test: Amastigotes of Leishmania infantum (MHOM/MA(BE)67) in peritoneal macrophages; type: cell-based; details: for activity on the MHOM/MA(BE)67 strain of Leishmania infantum (in words): comment on Table II; for IC50: Leishmania infantum, Peritoneal macrophage, in Mus musculus, 48 h, read-out: L. infantum (MHOM/MA (BE) 67) IC50
[6] = tested on: Leishmania infantum (MHOM/FR/91/LEM2259V); test: Balb/c mice infected with visceral leishmaniasis (Leishmania infantum); type: in vivo; details: 10 days, quinolines oral 25 mg/kg/day, Glucantime subcutaneous 100 mg/kg/day; for Number of parasites in the liver per gram / Number of parasites in the spleen per gram: n=8; for % reduction in the number of parasites in the liver / % reduction in the number of parasites in the spleen: versus without treatment
Procedure: b) Tests Carried on Laboratory Animals Infected with Visceral Leishmaniasis (Leishmania infantum): 1/Laboratory Animals and Parasites
The Balb/c mice were infected with Leishmania infantum parasites at the promastigote stage (reference: MHOM/FR/91/LEM2259V), a strain isolated from a patient carrying AIDS. This strain is maintained in Schneider's drosophila culture medium (Gibco, USA) supplemented with 20% of fetal calf serum. The infectious promastigotes are cultured for 7 days and then counted. Each mouse is then infected intravenously with 0.2 ml of culture medium containing 10^7 promastigotes.
Counting of amastigotes forms in the liver and spleen.
After the treatments have been stopped and the animals sacrificed, the viscera, liver and spleen are weighed and collected in a Petri dish. Each organ is mounted several times on a degreased glass slide which, fixed and stained by the May-Grünwald-Giemsa technique, makes it possible to determine the number of amastigote forms per 500 nucleated cells.
The results are expressed in Table VI.

[7] = tested on: amastigotes of Leishmania infantum (IPZ229/1/89); test: microbe, parasite or virus in culture; type: cell-based; details: for IC50: Leishmania infantum, Peritoneal macrophage, in Mus musculus, 48 h, read-out: L. infantum (IPZ229/1/89) IC50
Source text: (§1) b) Tests on Amastigotes of Leishmania donovani and Leishmania infantum
(§2) The Leishmania donovani and Leishmania infantum strains are maintained by successive passages in golden hamsters. The amastigotes are isolated from the spleens of the infected hamsters and brought into contact with the purified macrophages.
(§3) Twenty-four hours after intraperitoneal injection of Balb/c mice with a 2% starch solution, the peritoneal macrophages of these mice are collected, washed in Dulbecco PBS and then distributed in Lab-tek® culture chambers, in a proportion of 4×10^4 cells per 100 μl per well in RPMI-1640 medium supplemented with 10% of FCS and antibiotics. After 24 hours at 37° C. in a humid atmosphere (5% CO2), the macrophages are brought into contact with purified amastigotes (3 parasites per macrophage) in a final volume of 200 μl for 4 hours. The medium is then removed in order to eliminate the extracellular parasites, and replaced with 100 μl of fresh medium.
(§4) Twenty-four hours after the beginning of infection, the solutions of substituted quinolines prepared as described in paragraph a) above are added and the leishmanicidal activity is determined after 48 hours by counting the number of parasites still alive in the fixed and Giemsa-stained cells.

[8] = tested on: amastigotes of Leishmania donovani (MHOM/ET/67/L82); test: microbe, parasite or virus in culture; type: cell-based; details: for IC50: Leishmania donovani, Peritoneal macrophage, in Mus musculus, 48 h, read-out: L. donovani IC50
Source text: as §1, §2, §3, §4

[9] = tested on: Leishmania amazonensis (IFLA/BR/67/PH8); details: 15 days, quinolines oral 25 mg/kg/day, Glucantime subcutaneous 100 mg/kg (28 mg Sbv/kg); for Mean of the number of parasites in the lesion per gram / Weight of lesions (mean ± standard deviation): n=8; for % reduction in the number of parasites in the lesion: versus untreated controls
Source text: a) Tests Carried Out on Laboratory Animals Infected with Cutaneous Leishmaniasis (Leishmania amazonensis):
The experimental animals are male or female approximately 6- to 8-week-old Balb/c mice weighing 18-24 g, subsequently reared for reproduction in the animal house of the Instituto de Investigaciones en Ciencias de la Salud (IICS), Asuncion, Paraguay. Golden hamsters (Mesocricetus auratus) are used to maintain these strains and as reservoirs for L. amazonensis parasites.
The Balb/c mice are infected with Leishmania amazonensis parasites, at the amastigote stage of the reference strain IFLA/BR/67/PH8, subcutaneously in the ventral pad of the right rear foot, the left foot remaining as a control. The amount of amastigotes inoculated is 2×10^6 amastigotes in 50 μl of phosphate buffer saline (PBS) for L. amazonensis.
The treatments begin once the infection is well established, mainly in general 5 to 6 weeks after inoculation of the L. amazonensis amastigotes. The reference medicinal product chosen is Glucantime® or meglumine antimoniate from Aventis (France).
The untreated control mice are given 50 μl of a solution of Tween 80 with PBS.
Measurement of the lesion: the diameters of the lesions on the infected foot and on the control foot are measured using a micrometer with 1/10 mm graduations, once a week for the duration of the experiment. The first measurements begin 48 hours after inoculation of the parasites. Calculating the difference in the two measurements gives the thickness of the lesion.
The 5 ml of puree obtained are centrifuged twice. The layer containing the amastigotes is subjected to counting of the number of parasites using a Neubauer cell. Five counts are performed on each amastigote layer. The number of amastigote forms is determined using the Stauber formula which takes into account the weight of the lesion: A/N×W×coefficient of the Neubauer cell • A=number of amastigotes, N=number of nuclei W=weight of the lesion
The results are expressed by the calculation of the arithmetic mean of the diameters of the lesions measured once a week and, at the end of the protocol, after sacrifice of the mice, of the weights of the lesions and of the number of amastigotes. A Student's test (t-test) is used for the statistical analysis of all the data. The comparison is made between “control” groups with a “treatment” group per pair. A value of P<0.05 is considered to be statistically significant.

[10] = circulating forms, culturing for 48 hours
[11] = Balb/c peritoneal macrophages, 4 days
[12] = Trypanosoma cruzi, TULAHUEN, Peritoneal macrophage, in Mus musculus, 96 h

Row | Compound | Cytotoxicity on macrophages ([1]; macrophages from BALB/c mice) | L. amazonensis IC100 [2] | IC50 [3, 10] | IC50 [4, 11] | further results
1 | C/C=C/c1ccc2cccc(O)c2n1 [Quinoline 11] | 50 µg/mL | 50 µg/mL | > 32 µM | 19 µM | –
2 | CCC(O)c1ccc2ccccc2n1 (stereo not drawn) [Quinoline 17] | – | – | 3 µM | > 32 µM | –
3 | C[Si](C)(C)C#Cc1ccc2ccccc2n1 [Example 1, 2-(2-quinolyl)trimethylsilylacetylene] | 6.25 µg/mL | 0.7812 µg/mL | – | – | –
4 | FC(Br)=Cc1ccc2ccccc2n1 [Quinoline 31] | 25 µg/mL | 25 µg/mL | – | – | –
5 | BrC#Cc1ccc2ccccc2n1 [Quinoline 28] | 12.5 µg/mL | 12.5 µg/mL | 5 µM | > 32 µM | –
6 | CCCCC/C=C/c1ccc2ccccc2n1 [Quinoline 25] | 25 µg/mL | 12.5 µg/mL | 4 µM | 11 µM | activity on the MHOM/MA(BE)67 strain of Leishmania infantum (in words) [5]: less active; activity on Leishmania amazonensis (in words) [2]: advantageous activity; activity on Trypanosoma brucei (in words) [3]: advantageous activity; activity on Trypanosoma cruzi (in words) [4]: advantageous activity
7 | CC(O)Cc1ccc2ccccc2n1 (stereo not drawn) [Quinoline 15] | – | – | 16 µM | > 32 µM | –
8 | CC(O)Cc1ccc2cccc(O)c2n1 (stereo not drawn) [Quinoline 22] | – | – | 16 µM | 16 µM | –
9 | OC/C=C/c1ccc2ccccc2n1 [Quinoline 10] | – | – | > 32 µM | 4 µM | Cytotoxicity on macrophages ([1]; macrophages from BALB/c mice, listed as 10): 6.25 µg/mL; L. amazonensis IC100 ([2]; listed as 10): 1.56 µg/mL
10 | Cl/C=C/C#Cc1ccc2ccccc2n1 [Quinoline 24] | – | 10 to 25 µg/mL | – | – | –
11 | COC(=O)/C=C/c1ccc2ccccc2n1 [Quinoline 23, methyl E-3-(2-quinolyl)-2-propenoate] | – | 12.5 µg/mL | – | – | Cytotoxicity on macrophages ([1]; BALB/c, mouse): 50 µg/mL; IC50 [5]: 26 µM; activity on the MHOM/MA(BE)67 strain of Leishmania infantum (in words) [5]: less advantageous; activity on Leishmania amazonensis (in words) [2]: marked activity; Number of parasites in the liver per gram [6]: 1.8 × 10^7 d per gram; Number of parasites in the spleen per gram [6]: 1.5 × 10^6 c, f per gram; % reduction in the number of parasites in the liver [6]: −60.0%; % reduction in the number of parasites in the spleen [6]: −64.3%; IC50 ([3]; Trypanosoma brucei, 48 h): 16 µM; activity on Trypanosoma brucei (in words) [3]: less advantageous; IC50 [7]: 0.4 to 2.2 µg/mL (≈ 1.88 to 10.3 µM); activity on the IPZ229/1/89 strain of Leishmania infantum (in words) ([7]; comment on Table II): marked activity; IC50 [8]: 3.3 to 30 µg/mL (≈ 15.5 to 141 µM); activity on Leishmania donovani (in words) ([8]; comment on Table II): marked activity; Mean of the number of parasites in the lesion per gram [9]: 3.1 × 10^6 per gram; Weight of lesions (mean ± standard deviation) [9]: 0.059 ± 0.010 g; % reduction in the number of parasites in the lesion [9]: −88%**; IC50 [4, 12]: 15 µM; activity on Trypanosoma cruzi (in words) [4]: less advantageous
12 | meglumine antimoniate [Glucantime, reference compound] | – | – | – | – | Number of parasites in the liver per gram [6]: 1.6 × 10^7 a per gram; Number of parasites in the spleen per gram [6]: 4.4 × 10^6 per gram; % reduction in the number of parasites in the liver [6]: −65.3%; % reduction in the number of parasites in the spleen [6]: +6.0%; Mean of the number of parasites in the lesion per gram [9]: 7.2 × 10^5 per gram; Weight of lesions (mean ± standard deviation) [9]: 0.012 ± 0.010 g; % reduction in the number of parasites in the lesion [9]: −97%
13 | CCCCCCCCC#Cc1ccc2ccccc2n1 [Quinoline 32] | 12.5 µg/mL | 12.5 µg/mL | – | – | –
14 | COC(=O)/C=C/C=C/c1ccc2ccccc2n1 [Quinoline 30] | 25 µg/mL | 12.5 µg/mL | – | 26 µM | –
15 | Br/C=C/c1ccc2ccccc2n1 [Quinoline 29, E-1-bromo-2-(2-quinolyl)-ethene] | 3.12 µg/mL | 0.7812 µg/mL | – | – | IC50 [5]: 2 µM; IC50 ([3]; Trypanosoma brucei, 48 h): 1 µM; IC50 [4, 12]: < 0.5 µM
16 | Cc1ccc2nc(C=O)ccc2c1 [Quinoline 5] | – | – | – | > 32 µM | –
17 | BrC(Br)=Cc1ccc2ccccc2n1 [Quinoline 36] | – | – | 4 µM | 21 µM | –
18 | COC(=O)/C=C/c1ccc2cc(C)ccc2n1 [Quinoline 27] | – | 50 µg/mL | – | 25 µM | –
19 | CC(=O)Cc1ccc2ccccc2n1 [Quinoline 13] | 25 µg/mL | 25 µg/mL | 10 µM | > 32 µM | –
20 | OC/C=C/c1ccc2ccccc2n1 [Example 4, E-3-(2-quinolyl)prop-2-en-1-ol] | 25 µg/mL | 25 µg/mL | – | – | –
21 | C(=C\c1ccc2ccccc2n1)/c1ccc2ccccc2n1 [Quinoline 35] | – | – | 24 µM | > 32 µM | –
22 | O=C(O)/C=C/c1ccc2ccccc2n1 [Quinoline 19] | 12.5 µg/mL | 12.5 µg/mL | – | – | –
23 | c1ccc2nc(CCc3ccc4c(c3)OCO4)ccc2c1 [Quinoline 34] | 25 µg/mL | 50 µg/mL | 13 µM | 15 µM | –
24 | C#Cc1ccc2ccccc2n1 [Quinoline 1, 1-(2-quinolyl)acetylene] | – | – | – | – | Number of parasites in the liver per gram [6]: 1.8 × 10^7 c per gram; Number of parasites in the spleen per gram [6]: 2.2 × 10^6 b per gram; % reduction in the number of parasites in the liver [6]: −60.0%; % reduction in the number of parasites in the spleen [6]: −47.6%
25 | CC/C=C/c1ccc2ccccc2n1 [Quinoline 6, E-1-(2-quinolyl)butene] | 25 µg/mL | 6.25 µg/mL | 17 µM | > 32 µM | Mean of the number of parasites in the lesion per gram [9]: 6.9 × 10^6 per gram; Weight of lesions (mean ± standard deviation) [9]: 0.101 ± 0.100 g; % reduction in the number of parasites in the lesion [9]: −73%
26 | C=Cc1ccc2ccccc2n1 [Quinoline 2, (2-quinolyl)ethylene] | 6.25 µg/mL | 3.12 µg/mL | – | – | IC50 [5]: > 32 µM; IC50 ([3]; Trypanosoma brucei, 48 h): 13 µM; IC50 [7]: 1.3 µg/mL (≈ 8.38 µM); IC50 [8]: 1.2 to 2.8 µg/mL (≈ 7.73 to 18 µM); IC50 [4, 12]: 12 µM

— patent US7342026B2, “Substituted quinolines for the treatment of protozoa and retrovirus co-infections” (priority 2001, dated 2008)
